# Source: PubChem BioAssay AID602191 (Broad Institute, 2012)
# The source made the active and inactive calls.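 Rule for the calls: active = fitted curve reaches 40% activation at a concentration no higher than the top valid tested dose; inconclusive = flat fit between 30% and 70% activation, or poor fit; inactive = uptake decrease, flat fit within 30% of zero, the rest.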
# Target: Scavenger receptor class B member 1 (Mus musculus) (UniProt Q61009)
# Test: enhancers of DiI-HDL lipid transfer via SR-BI – cell-based, ldlA[mSR-BI] CHO, DiI fluorescence, cherry-pick, dose response (AID 602191);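 note: cell fluorescence from internalized DiI-labeled HDL after washing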;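 for AC40: potency of activators raising HDL uptake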;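 for activation (HDL uptake increase): 0% = median of DMSO wells and 100% = twice the DMSO signal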
# Settings: ldlA[mSR-BI] CHO cells, 3 h, at 35 µM (top of the series)
# Sequence of Scavenger receptor class B member 1 (Mus musculus) (Q61009 whole entry, looked up): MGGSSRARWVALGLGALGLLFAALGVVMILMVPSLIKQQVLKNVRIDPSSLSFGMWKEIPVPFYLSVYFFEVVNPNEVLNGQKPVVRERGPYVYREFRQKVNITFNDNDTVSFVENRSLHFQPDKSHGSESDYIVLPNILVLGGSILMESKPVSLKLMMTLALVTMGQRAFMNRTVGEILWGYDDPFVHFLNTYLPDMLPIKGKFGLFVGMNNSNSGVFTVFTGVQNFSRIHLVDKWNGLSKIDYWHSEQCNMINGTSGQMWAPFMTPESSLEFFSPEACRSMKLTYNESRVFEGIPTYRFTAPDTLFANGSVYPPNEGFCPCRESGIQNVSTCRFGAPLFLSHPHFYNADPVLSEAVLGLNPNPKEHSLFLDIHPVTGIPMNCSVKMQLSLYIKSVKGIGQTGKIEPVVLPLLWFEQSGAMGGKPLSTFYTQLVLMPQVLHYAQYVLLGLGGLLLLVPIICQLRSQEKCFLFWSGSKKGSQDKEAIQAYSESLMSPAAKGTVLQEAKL
row,Compound,activation (HDL uptake increase)
1,O=C1C2C(c3ccccc3)CC=CC2[C@H](c2ccc(C(F)(F)F)cc2)N1Cc1ccccc1 (stereo partly drawn),-16.7% (inactive)
2,CC(=O)N1C2CCCCC2S[C@H]2CCCCC21 (stereo partly drawn),-4.16% (inactive)
3,Cc1ccc(N2C(=O)C3C(C(=O)c4ccccc4)=NN(c4ccccc4)C3C2=O)cc1 (stereo not drawn),0.966% (inactive)
4,O=C(O)CCc1nnc(SCC(=O)Nc2cccc(C(F)(F)F)c2)[nH]c1=O,-1.57% (inactive)
5,O=C(COC(=O)COc1ccccc1)NCCC1=CCCCC1,2.72% (inactive)
6,COc1ccc(NC(=O)C(Sc2nnc3ccccn23)c2ccccc2)cc1Cl (stereo not drawn),-16.3% (inactive)
7,CCCCNC(=O)CCCCC(=O)N/N=C/c1cccc(Cl)c1,-17.4% (inactive)
8,COc1ccccc1CNC(=O)COC(=O)CSc1ccc(C)c(C)c1,-0.519% (inactive)
9,COC(=O)Cc1c(C)c2ccc(OCc3nn[nH]n3)cc2oc1=O,4.87% (inactive)
10,O=C(c1ccc(CS(=O)Cc2ccccc2Cl)o1)N1CCN(c2ccccn2)CC1 (stereo not drawn),-16.3% (inactive)
11,O=C(CSc1nnc(Cc2cccs2)n1-c1ccccc1)NC1CCCCC1,-15.7% (inactive)
12,CCOC(=O)C1CCCN(S(=O)(=O)c2ccc(S(=O)(=O)N3CCCC3)cc2)C1 (stereo not drawn),-3.5% (inactive)
13,CC(C)(C)c1ccccc1NC(=O)CN1C(=O)NC2(CCCCCC2)C1=O,-12.4% (inactive)
14,COc1ccc(N2C(=O)CCC(C(=O)N3CCOCC3)C2c2ccc(F)cc2)cc1 (stereo not drawn),5.04% (inactive)
15,CC(C)CCNCC(=O)NC(c1ccccc1)c1ccccc1,-2.56% (inactive)
16,O=C(NCc1cccc(Cl)c1)c1ccc(CS(=O)Cc2ccccc2Cl)o1 (stereo not drawn),0.636% (inactive)
17,Cc1cc(C)nc(Nc2ncc(O)n2-c2ccccc2)n1,-7.64% (inactive)
18,CCCN1CCC(NC(=O)C2CCCCC2C(=O)O)CC1 (stereo not drawn),-8.02% (inactive)
19,Cc1ccccc1-c1nnc(SCC(=O)Nc2c(C)n(C)n(-c3ccccc3)c2=O)o1,-18.8% (inactive)
20,Cc1cccc(C)c1NC(=O)N1C2CCCC1CC(NC(=O)C(C)(C)C)C2 (stereo not drawn),5.39% (inactive)
21,Cc1ccc(N(CC(=O)N2CC(=O)Nc3ccccc32)S(=O)(=O)c2ccc3c(c2)OCCO3)cc1,-11.9% (inactive)
22,O=c1[nH]c(C2CCN(S(=O)(=O)c3ccc4c(c3)OCCO4)CC2)nc2c1nnn2Cc1ccc(F)cc1,-4.95% (inactive)
23,C=C1[C@@H](OC(C)=O)[C@]23C[C@@H]1[C@@H](OC(C)=O)CC2[C@]12C4C[C@H]3[C@H]1N(CC)C[C@]4(C)CC[C@@H]2O (stereo partly drawn),-3.15% (inactive)
24,Nc1nc(SCC(=O)OCc2ccccc2)[nH]c(=O)c1NC(=O)c1ccco1,4.16% (inactive)
25,CCc1ccc(C(=O)CN2C(=O)NC(C)(CCc3ccccc3)C2=O)cc1 (stereo not drawn),-8.25% (inactive)
26,O=C(COC(=O)CNC(=O)c1ccc(Cl)cc1Cl)NCc1ccco1,-5.97% (inactive)
27,COc1ccccc1CN1C(=O)CCC1(C)C(=O)NCc1cccnc1 (stereo not drawn),-8.82% (inactive)

row,Compound,activation (HDL uptake increase)
1,COc1ccccc1CN(C(=O)CCl)C(C(=O)NC1CCCCC1)c1ccncc1 (stereo not drawn),3.52% (inactive)
2,O=C(COC(=O)c1ccc[nH]c1=O)Nc1cc(S(=O)(=O)N2CCCCCC2)ccc1Cl,-9.61% (inactive)
3,COc1ccc(N2CCN(c3oc(-c4ccco4)nc3C#N)CC2)cc1,1.24% (inactive)
4,C/C=C(\C)C(=O)OC1CC(C)(C)C[C@H]2C3=CC[C@@H]4[C@@]5(C)CCC(O[C@@H]6O[C@@H](C(=O)O)[C@@H](O)C(O[C@@H]7OC[C@H](O)[C@@H](O)[C@@H]7O[C@@H]7OC(CO)C(O)[C@@H](O)[C@@H]7O)C6O[C@@H]6OC(CO)C(O)C(O)C6O)[C@@](C)(CO)[C@@H]5CC[C@]4(C)[C@]3(C)CC(O)[C@@]12CO (stereo partly drawn),-2.08% (inactive)
5,O=C1CN(C(=O)COC(=O)C2=COCCO2)c2ccccc2N1,7.62% (inactive)
6,COc1ccccc1N1CCN(C2CCCN(C(=O)c3ccccn3)C2)CC1 (stereo not drawn),-4.31% (inactive)
7,COc1cccc(C(=O)COC(=O)CCC(=O)c2ccccc2)c1,-0.792% (inactive)
8,CC(C)COC(=O)Cc1c(O)c2ccccc2[nH]c1=O,-2.53% (inactive)
9,COc1ccccc1C(=O)NCC(=O)NCc1cc(=O)n(C)c(=O)n1C,-3.18% (inactive)
10,CC(C)(C)OC(=O)NCCCC[C@H](NC(=O)c1nc[nH]c1C(=O)NC(c1ccccc1)c1ccccc1)C(=O)OC(C)(C)C,-9.52% (inactive)
11,O=C(NCc1ccccn1)c1ccc(S(=O)(=O)Nc2ccccc2F)cc1,0.427% (inactive)
12,Cn1c(SCC(=O)N2CCCCCC2)nc2c(c1=O)SCC2,-10.7% (inactive)
13,CC(C)C(NC(=O)c1ccccc1F)C(=O)NCc1ccccc1 (stereo not drawn),4.3% (inactive)
14,O=C(NNC(=O)C1CC(c2cccnc2)=NO1)Nc1cccc(F)c1 (stereo not drawn),-5.33% (inactive)
15,CCN1CCN(C(c2cccc(OC)c2)c2sc3nc(C)nn3c2O)CC1 (stereo not drawn),-1.19% (inactive)
16,CN1CCN(S(=O)(=O)c2cccc(C(=O)NC3(C)CCS(=O)(=O)C3)c2)CC1 (stereo not drawn),-5.92% (inactive)
17,COc1ccc(CCN2CC(C(=O)NCc3cnn(C(C)C)c3)CCC2=O)cc1 (stereo not drawn),-1.83% (inactive)
18,CN(C(=O)c1ccccc1Cl)c1ccccc1C(=O)NCc1ccccc1,-10.9% (inactive)
19,Cc1ccc(C2(CCNCc3ccc(N(C)C)cc3)CCOC(C(C)C)C2)cc1 (stereo not drawn),-1.19% (inactive)
20,O=C(Cc1ccc(S(=O)(=O)N2CCOCC2)s1)OCc1ccc(Cl)cc1,-16.7% (inactive)
21,CNC[C@H]1Oc2c(NS(=O)(=O)c3ccc(OC)cc3)cccc2C(=O)N([C@H](C)CO)C[C@H]1C,9.97% (inactive)
22,O=C(Cn1nc(-c2ccccc2)ccc1=O)Nc1ccc(-n2cnnn2)cc1,12% (inactive)
23,O=C(CSc1nnc(CCCOc2ccc(Cl)cc2Cl)o1)Nc1ccc(C(=O)O)cc1,-4.13% (inactive)
24,O=C(C1CCC(=O)N(C2CCCC2)C1)N1CCN(Cc2cccc(Cl)c2)CC1 (stereo not drawn),-5.02% (inactive)
25,N#C/C(=C/c1cn(-c2ccccc2)nc1-c1cccc(OCc2ccccc2)c1)C(=O)NCCCn1ccnc1,12.2% (inactive)
26,O=C(CCCCCN1C(=O)c2ccccc2C1=O)Nc1ccc(C(=O)O)cc1,-6.25% (inactive)
27,COc1ccccc1N1C(=O)CCC1(C#N)c1ccc(Br)cc1 (stereo not drawn),9.71% (inactive)

# Same assay, conditions: ldlA[mSR-BI] CHO cells, DiI-HDL uptake fluorescence, 3 h
row,Compound,AC40
1,Cc1ccc(S(=O)(=O)Nc2ccc3c(c2)C(=O)N([C@H](C)CO)C[C@H](C)[C@@H](CN(C)Cc2ccc(-c4ccccc4)cc2)O3)cc1,35 µM
2,COc1ccccc1OCCc1nnc(N)s1,> 35 µM (inactive)
3,O=c1c(C=NCCN2CCNCC2)c(O)n(C2CCCCC2)c(=O)n1C1CCCCC1,> 35 µM (inactive)
4,CC(C)(C)NC(=O)C[C@H]1C[C@H](C(=O)N2CCOCC2)[C@@]2(CCC3CCCC3)c3[nH]c4ccc(Cl)cc4c3CCN2C1=O,> 35 µM (inactive)
